# Reference: patent publication US20230355517A1, “USE OF ACTIVE SUBSTANCES WITH ANTIVIRAL, ANTI MALARIAL, AND/OR MUCOLYTIC PROPERTIES IN THE TREATMENT OF VIRAL LUNG DISEASES INCLUDING COVID-19 BY SOFT MIST INHALER OR VIBRATION MESH TECHNOLOGY NEBULIZER THROUGH INHALATION ROUTE” (ATANBUL UNIVERSITESI REKTOLUGU, priority 2020, published 2023)
# Columns and labels:
# [1] = type: physicochemical; conditions: pH 7.4
# Experimental: In the present invention, a study for solubility of favipiravir active substance was conducted.
# [2] = tested on: lung tissue; set-up: species or system rats; conditions: rat, in vivo
# [3] = pH analysis of compositions containing favipiravir; type: physicochemical
# Experimental: In the present invention, pH analysis was performed for the composition containing favipiravir. […] When it is formulated with phosphate buffer, pH values thereof approach 7,4. Therefore, in consideration of all combinations, the pH interval for the formulations was kept in the range of 3.5-8.0.
compound,measurement,setting,value
NC(=O)c1nc(F)c[nH]c1=O [favipiravir],solubility,[1],further increased
same,histological damage scores of the lungs (H&E),[2],not statistically different
same,lung histology under light microscopy,[2],Normal lung histology
same,pH values,[3]; formulated with phosphate buffer,"~7,4"
same,smallest pH value,"[3]; in combinations of physiological saline, half physiological saline, and HP-β-cyclodextrin",3.56-3.62
